Values joined by “and” are separate entries in the source; they are usually repeats but may differ in a detail not shown here. Identical values can stand only once.
Target: T1, mouse Mfsd2a (Mus musculus, UniProt Q9DA75)
T1 construct: expressed in transfected cells; host or cells: HEK293
T1 sequence (Q9DA75 1-534): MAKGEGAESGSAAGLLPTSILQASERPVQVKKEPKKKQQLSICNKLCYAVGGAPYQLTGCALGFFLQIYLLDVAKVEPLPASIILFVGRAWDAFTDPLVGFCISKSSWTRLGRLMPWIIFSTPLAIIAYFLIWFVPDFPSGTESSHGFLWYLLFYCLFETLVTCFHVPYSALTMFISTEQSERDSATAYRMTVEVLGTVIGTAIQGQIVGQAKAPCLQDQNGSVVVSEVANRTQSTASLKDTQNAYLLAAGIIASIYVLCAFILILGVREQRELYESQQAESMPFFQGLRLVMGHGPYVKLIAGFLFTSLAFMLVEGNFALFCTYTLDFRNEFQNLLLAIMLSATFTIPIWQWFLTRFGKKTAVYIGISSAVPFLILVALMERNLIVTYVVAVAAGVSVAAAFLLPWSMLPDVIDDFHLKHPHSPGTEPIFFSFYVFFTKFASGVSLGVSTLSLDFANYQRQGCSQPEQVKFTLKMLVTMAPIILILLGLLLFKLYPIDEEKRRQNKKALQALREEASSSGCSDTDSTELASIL
Experiment: Cell-based free fatty acid transport/uptake in Mfsd2a expressing HEK293 cells (mass spectrometry, TLC; Table 1)
Conditions: Mfsd2a HEK293 cells, 100 uM fatty acid/BSA overnight
Outline: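 HEK293 cells expressing mouse Mfsd2a, or mock controls, were incubated overnight with 100 μM BSA-complexed fatty acids. Lipids were extracted in hexane:isopropanol (3:2) and phospholipid species quantified by HPLC-MS/MS against spiked internal standards. For TLC, cells received 100 μM [^14C]-oleate overnight, and phospholipids and neutral lipids were resolved.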

## CCCCCCCCCCCCCCCC(=O)O [Palmitic acid]
  % DHA in PC + lysoPC: 0.03823% and 0.0379% and 0.03421%
  % DHA in PE + lysoPE: 10.42% and 11.02% and 9.771%
  % DHA in PI and lysoPI: 0.01451% and 0.01192% and 0.01113%
  % DHA in PS: 0.1262% and 0.1099% and 0.1138%
  LPI16:0 in total phospholipid: 0.004365 mol percent and 0.003505 mol percent and 0.0022 mol percent
  LPI18:0 in total phospholipid: 0.02606 mol percent and 0.0265 mol percent and 0.02588 mol percent
  LPI20:4 in total phospholipid: 0.001669 mol percent and 0.001542 mol percent and 0.001553 mol percent
  LPI22:6 in total phospholipid: 0.007831 mol percent and 0.008132 mol percent and 0.006212 mol percent
  Lyso PE16:0p in total phospholipid: 2.777 mol percent and 2.934 mol percent and 3.347 mol percent
  Lyso PE18:0p in total phospholipid: 0.434 mol percent and 0.5456 mol percent and 0.7875 mol percent
  Lyso PE20:0p in total phospholipid: 0.2604 mol percent and 0.1622 mol percent and 0.3221 mol percent
  LysoPC16:0e in total phospholipid: 0.004306 mol percent and 0.004045 mol percent and 0.00338 mol percent
  LysoPC16:0 in total phospholipid: 0.02231 mol percent and 0.02238 mol percent and 0.01839 mol percent
  LysoPC16:1 in total phospholipid: 0.006002 mol percent and 0.005731 mol percent and 0.005746 mol percent
  LysoPC18:0e in total phospholipid: 0.002349 mol percent and 0.002697 mol percent and 0.00142 mol percent
  LysoPC18:0 in total phospholipid: 0.005806 mol percent and 0.006675 mol percent and 0.006016 mol percent
  LysoPC18:1 in total phospholipid: 0.01311 mol percent and 0.01254 mol percent and 0.01251 mol percent
  LysoPC18:2 in total phospholipid: 0.001631 mol percent and 0.001146 mol percent and 0.001487 mol percent
  LysoPC20:4 in total phospholipid: 0.000587 mol percent and 0.000539 mol percent and 0.000608 mol percent
  LysoPC22:6 in total phospholipid: 0.000652 mol percent and 0.000809 mol percent and 0.000879 mol percent
  LysoPE16:1 in total phospholipid: 0.1736 mol percent and 0.1327 mol percent and 0.1253 mol percent
  LysoPE18:0 in total phospholipid: 0.1042 mol percent and 0.08847 mol percent and 0.1611 mol percent
  LysoPE18:1 in total phospholipid: 0.1215 mol percent and 0.07373 mol percent and 0.07159 mol percent
  PC32:0e in total phospholipid: 1.809 mol percent and 1.851 mol percent and 1.702 mol percent
  PC32:0 in total phospholipid: 2.456 mol percent and 2.444 mol percent and 2.298 mol percent
  PC32:1e in total phospholipid: 2.403 mol percent and 2.512 mol percent and 2.3 mol percent
  PC32:1 in total phospholipid: 9.104 mol percent and 9.244 mol percent and 8.731 mol percent
  PC32:2 in total phospholipid: 1.488 mol percent and 1.519 mol percent and 1.412 mol percent
  PC34:1e in total phospholipid: 4.813 mol percent and 4.891 mol percent and 4.611 mol percent
  PC34:1 in total phospholipid: 18.56 mol percent and 18.94 mol percent and 17.94 mol percent
  PC34:2e in total phospholipid: 1.486 mol percent and 1.537 mol percent and 1.423 mol percent
  PC34:2 in total phospholipid: 6.06 mol percent and 6.22 mol percent and 5.829 mol percent
  PC34:3e in total phospholipid: 0.2283 mol percent and 0.2319 mol percent and 0.2175 mol percent
  PC34:3 in total phospholipid: 0.615 mol percent and 0.6295 mol percent and 0.5976 mol percent
  PC36:1e in total phospholipid: 1.432 mol percent and 1.425 mol percent and 1.342 mol percent
  PC36:1 in total phospholipid: 2.54 mol percent and 2.547 mol percent and 2.409 mol percent
  PC36:2e in total phospholipid: 1.609 mol percent and 1.633 mol percent and 1.504 mol percent
  PC36:2 in total phospholipid: 5.692 mol percent and 5.815 mol percent and 5.439 mol percent
  PC36:3e in total phospholipid: 0.8012 mol percent and 0.8224 mol percent and 0.7603 mol percent
  PC36:3 in total phospholipid: 1.149 mol percent and 1.165 mol percent and 1.071 mol percent
  PC36:4e in total phospholipid: 0.4287 mol percent and 0.4448 mol percent and 0.4173 mol percent
  PC36:4 in total phospholipid: 0.3268 mol percent and 0.3193 mol percent and 0.308 mol percent
  PC36:5e in total phospholipid: 0.3253 mol percent and 0.3343 mol percent and 0.309 mol percent
  PC36:5 in total phospholipid: 0.05232 mol percent and 0.05663 mol percent and 0.05164 mol percent
  PC36:6 in total phospholipid: 0.05108 mol percent and 0.04821 mol percent and 0.04326 mol percent
  PC38:1e in total phospholipid: 0.3517 mol percent and 0.3555 mol percent and 0.3378 mol percent
  PC38:3e in total phospholipid: 0.4164 mol percent and 0.4068 mol percent and 0.3798 mol percent
  PC38:3 in total phospholipid: 0.5146 mol percent and 0.5317 mol percent and 0.5066 mol percent
  PC38:4e in total phospholipid: 0.4168 mol percent and 0.4143 mol percent and 0.3843 mol percent
  PC38:4 in total phospholipid: 0.4407 mol percent and 0.4455 mol percent and 0.4228 mol percent
  PC38:5e in total phospholipid: 0.3513 mol percent and 0.3625 mol percent and 0.3264 mol percent
  PC38:5 in total phospholipid: 0.2268 mol percent and 0.2451 mol percent and 0.2273 mol percent
  PC38:6 in total phospholipid: 0.1683 mol percent and 0.1727 mol percent and 0.1591 mol percent
  PC38:7 in total phospholipid: 0.1176 mol percent and 0.1195 mol percent and 0.1136 mol percent
  PC40:1e in total phospholipid: 0.1793 mol percent and 0.1879 mol percent and 0.168 mol percent
  PC40:2e in total phospholipid: 0.1944 mol percent and 0.1992 mol percent and 0.1788 mol percent
  PC40:3e in total phospholipid: 0.1397 mol percent and 0.1434 mol percent and 0.1332 mol percent
  PC40:4e in total phospholipid: 0.1237 mol percent and 0.1272 mol percent and 0.1205 mol percent
  PC40:5e in total phospholipid: 0.1172 mol percent and 0.1169 mol percent and 0.1115 mol percent
  PC40:5 in total phospholipid: 0.08233 mol percent and 0.08765 mol percent and 0.07997 mol percent
  PC40:6 in total phospholipid: 0.1131 mol percent and 0.1203 mol percent and 0.105 mol percent
  PC40:7 in total phospholipid: 0.1694 mol percent and 0.1653 mol percent and 0.1619 mol percent
  PE32:1 in total phospholipid: 0.4397 mol percent and 0.3146 mol percent and 0.3699 mol percent
  PE32:2 in total phospholipid: 0.09258 mol percent and 0.118 mol percent and 0.1193 mol percent
  PE34:1 in total phospholipid: 1.562 mol percent and 1.425 mol percent and 1.336 mol percent
  PE34:2 in total phospholipid: 1.088 mol percent and 0.9634 mol percent and 1.014 mol percent
  PE34p:1 in total phospholipid: 1.042 mol percent and 1.072 mol percent and 1.479 mol percent
